{
  "source": "paper PMC6479946",
  "about": "(Molecules, 2019)",
  "assay": "Pharmacokinetic study in rats after oral HAR and MEM alone and in combination (plasma, UPLC-MS/MS, non-compartmental)",
  "conditions": "rat plasma, n = 8, mean ± SD",
  "protocol": "The analytes were separated on an ACQUITY UPLC BEH C18 column (2.1 mm × 50 mm, 1.7 μm, Waters, Milford, USA). […] The flow rate was 0.3 mL/min. The column and sample-tray temperature were kept at 40 °C and 4 °C, respectively. The injection volume was 5.0 μL using a partial loop with needle over fill mode.\nThe compound dependent parameters used for analysis were summarized in Supplementary materials Table S1.\nA rapid and convenient precipitation method was used to prepare the plasma samples. A 100 μL aliquot of plasma sample was spiked with 100 μL of IS solution and 300 μL of methanol in a 1.5 mL centrifuge tube; subsequently, the mixtures were vortex-mixed for 30.0 s and then centrifuged at 1.5 × 10^4× g for 10 min at 4 °C. A 100 μL aliquot of supernatant was combined with 25.0 μL of 0.1% formic acid water in a clean centrifuge tube and then vortex-mixed for 30 s. A 5.0 μL aliquot of mixture was injected into the UPLC-MS/MS system for analysis.\nFifty-six pathogen-free male adult rats were randomly divided into seven groups with eight rats in each group for pharmacokinetic study. […] One group was intragastrically administered with MEM hydrochloride 5.0 mg/kg dissolved in ultrapure water, namely, MEM group. […] The blood samples were immediately centrifuged at 4.0 × 10^3× g at […] for 10 min, and 100 μL of the supernatant plasma was transferred into another new 1.5 mL centrifuge tube and stored at −20 °C until UPLC-MS/MS analysis.\nAll standard curves and quantitative data were processed by Agilent Mass Hunter Quantitative Analysis Workstation Software. […] All the pharmacokinetic parameters were processed using the non-compartmental pharmacokinetics data analysis software program PK solutions 2.0^TM (Summit Research Services, USA). […] The AUC(0-t) was obtained by the linear/logarithmic trapezoidal rule, and the area under the plasma concentration versus time curve from zero to infinity (AUC(0-∞)) was calculated by means of the trapezoidal rule with extrapolation to infinity with a terminal elimination rate constant. The Pearson correlation coefficient analysis was processed by IBM SPSS Statistics Version 21. A statistical analysis was performed using analysis of variance with α = 0.05 as the minimal level of significance.",
  "key": {"[1]": {"conditions": "HOL as metabolite after oral HAR 40.0 mg/kg + MEM 5.0 mg/kg (HAR-M + MEM)"}, "[2]": {"conditions": "HOL as metabolite after oral HAR 40.0 mg/kg alone (HAR-M)"}, "[3]": {"conditions": "HOL as metabolite after oral HAR 80.0 mg/kg + MEM 5.0 mg/kg (HAR-H + MEM)"}, "[4]": {"conditions": "HOL as metabolite after oral HAR 80.0 mg/kg alone (HAR-H)"}},
  "note": "Marks after values point to notes of the source that are not given here.",
  "data": [
    {"substance": "harmol [HOL]", "values": [
      {"measurement": "AUC(0-t) of HOL", "setting": "[1]", "result": "35.5 ± 15.3", "unit": "ng·h/mL"},
      {"measurement": "AUC(0-∞) of HOL", "setting": "[1]", "result": "43.1 ± 21.9", "unit": "ng·h/mL"},
      {"measurement": "Cmax of HOL", "setting": "[1]", "result": "18.0 ± 5.95", "unit": "ng/mL"},
      {"measurement": "Ka of HOL", "setting": "[1]", "result": "1.98 ± 1.72", "unit": "h⁻¹"},
      {"measurement": "Ke of HOL", "setting": "[1]", "result": "0.312 ± 0.271", "unit": "h⁻¹"},
      {"measurement": "MRT of HOL", "setting": "[1]", "result": "5.52 ± 2.55", "unit": "h"},
      {"measurement": "T1/2a of HOL", "setting": "[1]", "result": "2.78 ± 4.59", "unit": "h"},
      {"measurement": "T1/2e of HOL", "setting": "[1]", "result": "3.53 ± 2.19", "unit": "h"},
      {"measurement": "T1/2d of HOL", "setting": "[1]", "result": "2.05 ± 1.61", "unit": "h"},
      {"measurement": "Tmax of HOL", "setting": "[1]", "result": "0.229 ± 0.0589", "unit": "h"},
      {"measurement": "AUC(0-t) of HOL", "setting": "[2]", "result": "27.1 ± 10.8", "unit": "ng·h/mL"},
      {"measurement": "AUC(0-∞) of HOL", "setting": "[2]", "result": "29.6 ± 11.3", "unit": "ng·h/mL"},
      {"measurement": "Cmax of HOL", "setting": "[2]", "result": "10.4 ± 2.13", "unit": "ng/mL"},
      {"measurement": "Ka of HOL", "setting": "[2]", "result": "0.808 ± 1.28", "unit": "h⁻¹"},
      {"measurement": "Ke of HOL", "setting": "[2]", "result": "0.400 ± 0.133", "unit": "h⁻¹"},
      {"measurement": "MRT of HOL", "setting": "[2]", "result": "4.44 ± 1.78", "unit": "h"},
      {"measurement": "T1/2a of HOL", "setting": "[2]", "result": "2.22 ± 1.67", "unit": "h"},
      {"measurement": "T1/2e of HOL", "setting": "[2]", "result": "1.94 ± 0.712", "unit": "h"},
      {"measurement": "T1/2d of HOL", "setting": "[2]", "result": "1.89 ± 1.07", "unit": "h"},
      {"measurement": "Tmax of HOL", "setting": "[2]", "result": "0.198 ± 0.324", "unit": "h"},
      {"measurement": "AUC(0-t) of HOL", "setting": "[3]", "result": "158 ± 59.9 ^bbb ng*h/mL"},
      {"measurement": "AUC(0-∞) of HOL", "setting": "[3]", "result": "327 ± 140 ^bbb ng*h/mL"},
      {"measurement": "Cmax of HOL", "setting": "[3]", "result": "40.4 ± 10.9 ^bbb ng/mL"},
      {"measurement": "Ka of HOL", "setting": "[3]", "result": "0.864 ± 1.00", "unit": "h⁻¹"},
      {"measurement": "Ke of HOL", "setting": "[3]", "result": "0.0899 ± 0.0912 ^b /h"},
      {"measurement": "MRT of HOL", "setting": "[3]", "result": "23.5 ± 19.3 ^b h"},
      {"measurement": "T1/2a of HOL", "setting": "[3]", "result": "2.15 ± 2.05", "unit": "h"},
      {"measurement": "T1/2e of HOL", "setting": "[3]", "result": "17.2 ± 14.7 ^b h"},
      {"measurement": "T1/2d of HOL", "setting": "[3]", "result": "3.48 ± 4.35", "unit": "h"},
      {"measurement": "Tmax of HOL", "setting": "[3]", "result": "2.39 ± 3.52", "unit": "h"},
      {"measurement": "AUC(0-t) of HOL", "setting": "[4]", "result": "57.8 ± 19.3 ^aaa ng*h/mL"},
      {"measurement": "AUC(0-∞) of HOL", "setting": "[4]", "result": "69.7 ± 23.1 ^aaa ng*h/mL"},
      {"measurement": "Cmax of HOL", "setting": "[4]", "result": "32.4 ± 16.5 ^aa ng/mL"},
      {"measurement": "Ka of HOL", "setting": "[4]", "result": "1.17 ± 1.96", "unit": "h⁻¹"},
      {"measurement": "Ke of HOL", "setting": "[4]", "result": "0.226 ± 0.0896 ^aa /h"},
      {"measurement": "MRT of HOL", "setting": "[4]", "result": "6.04 ± 2.12", "unit": "h"},
      {"measurement": "T1/2a of HOL", "setting": "[4]", "result": "2.02 ± 1.52", "unit": "h"},
      {"measurement": "T1/2e of HOL", "setting": "[4]", "result": "3.57 ± 1.50 ^a h"},
      {"measurement": "T1/2d of HOL", "setting": "[4]", "result": "2.02 ± 1.72", "unit": "h"},
      {"measurement": "Tmax of HOL", "setting": "[4]", "result": "0.271 ± 0.159", "unit": "h"}
    ]}
  ]
}
